Results reported in patent US8680290B2, “Isoxazoline derivatives and their use as herbicides” (Syngenta Limited, priority 2004, dated 2014).

Tests used:
[1] = test system: Monocotyledonous and dicotyledonous test plants; assay: Example B2 herbicidal action, application pre-emergence, 96-cell seed trays (Table B2b); assay type: in vivo; conditions: 1000 g/ha
Description: (§1) Monocotyledonous and dicotyledonous test plants were sown in sterilised standard soil in seed trays each having 96 cells. After one day (pre-emergence) or after 8 to 9 days cultivation (post-emergence) under controlled conditions in a climatic chamber (cultivation at 17/23° C.; 13 hours light; 50-60% humidity; after application at 19/24° C.), the plants were treated with an aqueous spray solution of 1000 mg/l of the active ingredient used (rate of application: […]; incl. 10% DMSO as solvent). The plants were grown on in the climatic chamber until the test was evaluated (10 total damage to plant, 0=no damage to plant) after 9 or 13 days.

[2] = test system: Monocotyledonous and dicotyledonous test plants; assay: Example B1 herbicidal action, application pre-emergence (Table B1b); assay type: in vivo; conditions: 250 g/ha, evaluated after 4 weeks
Procedure, shortened: (§2)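 Visual damage rating, 10 = plant dead and 0 = unharmed, taken at 3 weeks for post-emergence and 4 weeks for pre-emergence treatment. Application by spray of formulated aqueous solution either immediately after sowing or at 8–9 days' growth, with mono- and dicot plants kept in a greenhouse.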

[3] = test system: Monocotyledonous and dicotyledonous test plants; assay: Example B1 herbicidal action, application post-emergence (Table B1a); assay type: in vivo; conditions: 250 g/ha, evaluated after 3 weeks, scale 0-10
Procedure, shortened: as §2

[4] = test system: Monocotyledonous and dicotyledonous test plants; assay: Example B2 herbicidal action, application post-emergence, 96-cell seed trays (Table B2a); assay type: in vivo; conditions: 1000 g/ha
Description: as §1

SMILES | melting point | herbicidal action (damage rating 0-10), Agrostis [1] | herbicidal action (damage rating 0-10), Digitaria [1] | herbicidal action (damage rating 0-10), Poa [1] | herbicidal action (damage rating 0-10), Setaria [1] | herbicidal action (damage rating 0-10), Amaranthus [2] | herbicidal action (damage rating 0-10), Digitaria [2] | herbicidal action (damage rating 0-10), Panicum [2] | herbicidal action (damage rating 0-10), Setaria [2] | herbicidal action (damage rating 0-10), Sida [2] | herbicidal damage rating, Abutilon [3] | herbicidal damage rating, Digitaria [3] | herbicidal damage rating, Panicum [3] | herbicidal damage rating, Setaria [3] | herbicidal damage rating, Sida [3] | herbicidal action (damage rating 0-10), Agrostis [4] | herbicidal action (damage rating 0-10), Amaranthus [4] | herbicidal action (damage rating 0-10), Poa [4] | herbicidal action (damage rating 0-10), Setaria [4] | herbicidal damage rating, Amaranthus [3]
CC1(C)CC(S(=O)(=O)C(Cl)(Cl)c2c(F)cccc2F)=NO1 [Compound No. 1.26, 3-[dichloro-(2,6-difluoro-phenyl)-methanesulfonyl]-5,5-dimethyl-4,5-dihydroisoxazole] | 126 °C | 10 | 10 | 10 | 9 | 10 | 9 | 10 | 10 | 4 | 4 | 4 | 3 | 5 |  |  |  |  |  | 
Cc1cccc(C(Cl)S(=O)(=O)C2=NOC(C)(C)C2)c1 (stereo not drawn) [Compound No. 1.30, 3-[chloro-m-tolyl-methanesulfonyl]-5,5-dimethyl-4,5-dihydroisoxazole] | 102 °C | 10 | 10 | 10 | 10 | 0 | 9 | 10 | 9 | 2 |  |  |  |  |  |  |  |  |  | 
CC1(C)CC(S(=O)(=O)C(I)c2c(F)cccc2F)=NO1 (stereo not drawn) [Compound No. 1.25, 3-[(2,6-difluoro-phenyl)-iodo-methanesulfonyl]-5,5-dimethyl-4,5-dihydroisoxazole] | 156 °C | 10 | 9 | 10 | 8 | 10 | 10 | 10 | 10 | 3 | 5 | 4 | 3 | 3 | 4 |  |  |  |  | 
CC(=O)C(c1c(F)cccc1F)S(=O)(=O)C1=NOC(C)(C)C1 (stereo not drawn) [Compound No. 1.27, 1-(2,6-difluorophenyl)-1-(5,5-dimethyl-4,5-dihydroisoxazole-3-sulfonyl)-propan-2-one] | 116 °C | 10 | 9 | 9 | 9 | 7 | 4 | 9 | 5 | 2 | 4 | 2 | 5 | 3 | 4 |  |  |  |  | 
Cc1cccc(C(Cl)(Cl)S(=O)(=O)C2=NOC(C)(C)C2)c1 [Compound No. 1.31, 3-[dichloro-m-tolyl-methanesulfonyl]-5,5-dimethyl-4,5-dihydroisoxazole] | 89 °C | 9 | 9 | 9 | 10 | 0 | 9 | 9 | 7 | 0 | 3 | 1 | 7 | 0 | 7 |  |  |  |  | 
CC1(C)CC(S(=O)(=O)C(F)(Cl)c2c(F)cccc2F)=NO1 (stereo not drawn) [Compound No. 1.21, 3-[chloro-(2,6-difluoro-phenyl)-fluoro-methanesulfonyl]-5,5-dimethyl-4,5-dihydroisoxazole] | 129 °C | 10 | 10 | 10 | 9 | 10 | 10 | 10 | 10 | 9 | 7 | 7 | 9 | 7 | 5 |  |  |  |  | 
CC1(C)CC(S(=O)(=O)C(F)c2c(F)cccc2F)=NO1 (stereo not drawn) [1.06] |  | 10 | 10 | 10 | 10 | 10 | 5 | 10 | 9 | 7 |  |  |  |  |  | 8 | 8 | 8 | 7 | 
CC1(C)CC(S(=O)(=O)C(Cl)c2c(F)cccc2Cl)=NO1 (stereo not drawn) [1.32] |  |  |  |  |  |  |  |  |  |  |  |  |  |  |  | 8 | 6 | 8 | 6 | 
CC1(C)CC(S(=O)(=O)C(Br)c2c(F)cccc2F)=NO1 (stereo not drawn) [Compound No. 1.19, 3-[bromo-(2,6-difluorophenyl)-methanesulfonyl]-5,5-dimethyl-4,5-dihydroisoxazole] | 135 °C | 10 | 9 | 10 | 9 | 10 | 10 | 10 | 10 | 6 | 6 | 6 | 5 | 5 | 2 |  |  |  |  | 5
CC1(C)CC([S+]([O-])C(Cl)c2c(F)cccc2Cl)=NO1 (single isomer, unassigned) [1.34] |  |  |  |  |  | 9 | 9 | 10 | 10 | 7 | 3 | 5 | 8 | 6 | 3 | 8 | 5 | 8 | 8 | 5
